Where two headings read alike, the source gives them in different places.

Our source for the mortality values is patent publication US20120220453A1, “PESTICIDAL COMPOSTIONS AND PROCESSES RELATED THERETO” (priority 2011, published 2012).

Holding throughout (format): in vivo
Test [1] relates to Beet Armyworm (BAW) (Spodoptera exigua). Briefly: Bioassay on Beet Armyworm (BAW), 128-well diet tray assay. As to conditions: 120 h. The procedure:
Certain molecules disclosed in this document were tested against BAW and CEW using procedures described in the following examples. In the reporting of the results, the “Table 3: BAW & CEW Rating Table” was used (See Table Section).
Bioassays on BAW (Spodoptera exigua)
Bioassays on BAW were conducted using a 128-well diet tray assay. […] Trays were covered with a clear self-adhesive cover, and held at 25° C., 14:10 light-dark for five days. Percent mortality was recorded for the larvae in each well; activity in the eight wells was then averaged. The results are indicated in the table entitled “Table 5: BAW, CEW, GPA, Scale and WF Results” (See Table Section).

Test [2] relates to Sweet Potato Whitefly (WF) (Bemisia tabaci). Briefly: Bioassay on Sweet Potato Whitefly (WF), foliar spray on cotton plants. The note with it: 216 h, 200 ppm foliar spray on cotton plants, graded after 9 days, Abbott corrected % control, read-out: WF @ 200 ppm, % Control (or Mortality) rating. The procedure:
Certain molecules disclosed in this document were tested against WF using procedures described in the following example. In the reporting of the results, the “Table 4: GPA, Scale and WF Rating Table” was used (See Table Section).
Cotton plants (Gossypium hirsutum) grown in 3-inch pots, with 1 small (4-5 cm) true leaves, were used as test substrate. The plants were infested with 200-400 whitefly eggs 4-5 days prior to chemical application. Four pots with individual plants were used for each treatment. Test compounds (2 mg) were dissolved in 1 mL of acetone solvent, forming stock solutions of 2000 ppm test compound. The stock solutions were diluted 10× with 0.025% Tween 20 in H2O (diluents) to obtain the solution at 200 ppm test compound. A hand-held aspirator-type sprayer was used for spraying a solution to both sides of cotton leaves until runoff. Reference plants (solvent check) were sprayed with the diluent only containing 10% by volume of acetone solvent. Treated plants were held in a holding room for 9 days at approximately 25° C. and ambient relative humidity (RH) prior to grading. Evaluation was conducted by counting the number of live 3-4 nymphal stage per plant under a microscope. Percent Control was measured by using Abbott's correction formula (W. S. Abbott, “A Method of Computing the Effectiveness of an Insecticide” J. Econ. Entomol. 18 (1925), pp. 265-267) as follows.
Corrected % Control=100*(X−Y)/X • where • X=No. of live nymphs on solvent check plants and • Y=No. of live nymphs on treated plants.
(§1) The results are indicated in the table entitled “Table 5: BAW, CEW, GPA, Scale and WF Results” (See Table Section).

For test [3], the system named is San Jose Scale (Quadraspidiotus perniciosus). Description: Bioassay on San Jose Scale, foliar spray on cotton plants. The note with it: Diaspidiotus perniciosus, 216 h; 200 ppm foliar spray on cotton plants, live nymphs counted 9 days after infestation, Abbott corrected % control; read-out: Scale @ 200 ppm, % Control (or Mortality) rating. The procedure:
Certain molecules disclosed in this document were tested against Scale using procedures described in the following example. In the reporting of the results, the “Table 4: GPA, Scale and WF Rating Table” was used (See Table Section).
Cotton plants (Gossypium hirsutum) grown in 3-inch pots, with 1 small (4-5 cm) true leaves, were used as test substrate. The plants were infested with 200-400 scale crawlers 1-2 hours after chemical application. Four pots with individual plants were used for each treatment. Test compounds (2 mg) were dissolved in 1 mL of acetone solvent, forming stock solutions of 2000 ppm test compound. The stock solutions were diluted 10× with 0.025% Tween 20 in H2O (diluents) to obtain the solution at 200 ppm test compound. A hand-held aspirator-type sprayer was used for spraying a solution to both sides of cotton leaves until runoff. Reference plants (solvent check) were sprayed with the diluent only containing 10% by volume of acetone solvent. Treated plants were held in a holding room for three days at approximately 25° C. and ambient relative humidity (RH) prior to grading. Evaluation was conducted by counting the number of live 2-3 nymphal stage per plant under a microscope 9 days after infestation. Percent Control was measured by using Abbott's correction formula (W. S. Abbott, “A Method of Computing the Effectiveness of an Insecticide” J. Econ. Entomol. 18 (1925), pp. 265-267) as follows.
Corrected % Control=100*(X−Y)/X • where • X=No. of live nymphs on solvent check plants and • Y=No. of live nymphs on treated plants
as §1

Test [4] has as its system Green Peach Aphid (GPA) (Myzus persicae). Briefly: Bioassay on Green Peach Aphid (GPA), foliar spray on cabbage seedlings. As to conditions: 72 h, 200 ppm foliar spray on cabbage seedlings, graded after three days, Abbott corrected % control, read-out: GPA @ 200 ppm, % Control (or Mortality) rating. The procedure: Certain molecules disclosed in this document were tested against GPA using procedures described in the following example. In the reporting of the results, the “Table 4: GPA, Scale and WF Rating Table” was used (See Table Section).
Cabbage seedlings grown in 3-inch pots, with 2-3 small (3-5 cm) true leaves, were used as test substrate. The seedlings were infested with 20-50 GPA (wingless adult and nymph stages) one day prior to chemical application. Four pots with individual seedlings were used for each treatment. Test compounds (2 mg) were dissolved in 2 mL of acetone/methanol (1:1) solvent, forming stock solutions of 1000 ppm test compound. The stock solutions were diluted 5× with 0.025% Tween 20 in H2O to obtain the solution at 200 ppm test compound. A hand-held aspirator-type sprayer was used for spraying a solution to both sides of […] leaves until runoff. Reference plants (solvent check) were sprayed with the diluent only containing 20% by volume of acetone/methanol (1:1) solvent. Treated plants were held in a holding room for three days at approximately 25° C. and ambient relative humidity (RH) prior to grading. Evaluation was conducted by counting the number of live aphids per plant under a microscope. Percent Control was measured by using Abbott's correction formula (W. S. Abbott, “A Method of Computing the Effectiveness of an Insecticide” J. Econ. Entomol. 18 (1925), pp. 265-267) as follows.
Corrected % Control=100*(X−Y)/X • where • X=No. of live aphids on solvent check plants and • Y=No. of live aphids on treated plants
as §1

Setting [5] is: second instar larvae on treated artificial diet, five days, 25° C., read-out: BAW, % Control (or Mortality) rating.

Regarding `FC(F)(F)c1cccc(-c2cnn(-c3cccnc3)c2)n1` [Compound 1, 2-(1-(pyridin-3-yl)-1H-pyrazol-4-yl)-6-(trifluoromethyl)pyridine], the mortality in test [1] (read-out: BAW, % Control (or Mortality) rating) is 50 to 100%. The mortality at 200 ppm in test [2] was 0 to 80%; in test [3] it was 80 to 100%; in test [4], 80 to 100%.

For `FC(F)(F)c1ccc(-c2cnn(-c3cccnc3)c2)cn1` [Compound 2, 5-(1-(pyridin-3-yl)-1H-pyrazol-4-yl)-2-(trifluoromethyl)pyridine], the mortality in test [1] (setting [5]) is 50 to 100%. Further, the mortality at 200 ppm in test [3] was 0%; in test [4], 80 to 100%.

For the compound `Cc1nn(-c2cncc(F)c2)cc1-c1cccc(C(F)(F)F)n1` [Compound 3, 2-(1-(5-fluoropyridin-3-yl)-3-methyl-1H-pyrazol-4-yl)-6-(trifluoromethyl)pyridine], the mortality in test [1] (setting [5]) was in the range of 50 to 100%. Also, the mortality at 200 ppm in test [3] and in test [4] was 80 to 100% throughout.

In the case of `Cc1nn(-c2cccnc2)cc1-c1cccc(C(F)(F)F)n1` [Compound 4], the mortality in test [1] (setting [5]) fell in the range of 50 to 100%. Also, the mortality at 200 ppm in test [3] and in test [4] was 80 to 100% each time.

For `Cc1nn(-c2cccnc2)cc1-c1ccnc(C(F)(F)F)n1` [Compound 5], the mortality in test [1] (setting [5]) was in the range of 50 to 100%. For the same compound, the mortality at 200 ppm in test [3] and in test [4] was 80 to 100% in each case.

As to `Fc1cncc(-n2cc(-c3cccc(C(F)(F)F)n3)c(Cl)n2)c1` [Compound 7], in test [1] (setting [5]), the mortality is 50 to 100%. In addition, the mortality at 200 ppm in test [3] and in test [4] was 80 to 100% each time.

Consider `Cc1nccc(-c2cn(-c3cccnc3)nc2C)n1` [Compound 8], for which the mortality in test [1] (setting [5]) lay within 50 to 100%. The mortality at 200 ppm in test [3] and in test [4] was 80 to 100% throughout.

Consider `COc1ccnc(-c2cn(-c3cccnc3)nc2C)n1` [Compound 9], for which the mortality in test [1] (setting [5]) was in the range of 50 to 100%. Moreover, the mortality at 200 ppm in test [3] and in test [4] was 80 to 100% in each case.

Consider `Cc1nn(-c2cccnc2)cc1-c1cc(C(F)(F)F)ncn1` [Compound 10], for which the mortality in test [1] (setting [5]) lay within 50 to 100%. Besides, the mortality at 200 ppm in test [3] and in test [4] was 80 to 100% in each case.

Regarding `COc1cc(-c2cn(-c3cccnc3)nc2C)ncn1` [Compound 11], the mortality in test [1] (200 ppm, second instar larvae on treated artificial diet, five days, 25° C., read-out: BAW @ 200 ppm, % Control (or Mortality) rating) was in the range of 50 to 100%. Moreover, the mortality at 200 ppm in test [3] fell in the range of 0 to 80%; in test [4], 80 to 100%.

Regarding `COc1cc(-c2cn(-c3cccnc3)nc2C)nc(OC)n1` [Compound 12], in test [1] (setting [5]), the mortality is 50 to 100%. Besides, the mortality at 200 ppm in test [3] lay within 0 to 80%; in test [4] it was 80 to 100%.

With `CSc1nc(-c2cn(-c3cccnc3)nc2C)cc(C(F)(F)F)n1` [Compound 13], the mortality in test [1] (setting [5]) was 50 to 100%. Also, the mortality at 200 ppm in test [3] and in test [4] was 0 to 80% each time.

`CSc1cccc(-c2cn(-c3cccnc3)nc2C)c1` [Compound 17, 3-(3-methyl-4-(3-(methylthio)phenyl)-1H-pyrazol-1-yl)pyridine]: the mortality in test [1] (setting [5]) lay in the range of 50 to 100%. In addition, the mortality at 200 ppm in test [2] is 0%; in test [3] it was 0 to 80%; in test [4] it was 80 to 100%.

Turning to `COc1cccc(-c2cn(-c3cccnc3)nc2C)n1` [Compound 19], the mortality in test [1] (setting [5]) lay in the range of 50 to 100%. Also, the mortality at 200 ppm is 0 to 80% in test [2], 80 to 100% in test [3] and 80 to 100% in test [4].

Regarding `Cc1nn(-c2cccnc2)cc1-c1ccc(C(F)(F)F)cn1` [Compound 21], in test [1] (setting [5]), the mortality was in the range of 50 to 100%. The mortality at 200 ppm in test [2], in test [3] and in test [4] was 80 to 100% each time.

Regarding `Cc1nn(-c2cccnc2)cc1-c1cc(C(F)(F)F)ccn1` [Compound 22], the mortality in test [1] (setting [5]) lay within 50 to 100%. For the same compound, the mortality at 200 ppm in test [2], in test [3] and in test [4] was 80 to 100% each time.

For the compound `Cc1nn(-c2cccnc2)cc1-c1cccnc1` [Compound 23], in test [1] (setting [5]), the mortality was 50 to 100%. Also, the mortality at 200 ppm in test [2] is 0 to 80%; in test [3], 80 to 100%; in test [4], 80 to 100%.

Take `COc1ccc(-c2cn(-c3cccnc3)nc2C)cn1` [Compound 25]: the mortality in test [1] (setting [5]) fell in the range of 50 to 100%. Besides, the figures for the mortality at 200 ppm in test [2], in test [3] and in test [4] were 0 to 80%, 80 to 100% and 80 to 100%, respectively.

For `Cc1ccc(-c2cn(-c3cccnc3)nc2C)cn1` [Compound 26], the mortality in test [1] (setting [5]) fell in the range of 50 to 100%. The mortality at 200 ppm in test [2], in test [3] and in test [4] was 80 to 100% in each case.

Regarding `Cc1cncc(-c2cn(-c3cccnc3)nc2C)c1` [Compound 27], the mortality in test [1] (setting [5]) was in the range of 50 to 100%. The mortality at 200 ppm lay within 80 to 100% in test [2], 0 to 80% in test [3] and 80 to 100% in test [4].

With `Cc1ncccc1-c1cn(-c2cccnc2)nc1C` [Compound 28], the mortality in test [1] (setting [5]) was in the range of 50 to 100%. Moreover, the values for the mortality at 200 ppm in test [2], in test [3] and in test [4] were 0 to 80%, 80 to 100% and 80 to 100%, respectively.

Take `Cc1nn(-c2cccnc2)cc1-c1ccc(C(F)(F)F)nc1` [Compound 29]: the mortality in test [1] (setting [5]) was 50 to 100%. The mortality at 200 ppm in test [2], in test [3] and in test [4] was 80 to 100% each time.

Turning to `Cc1cc(-c2cn(-c3cccnc3)nc2C)ccn1` [Compound 30], the mortality in test [1] (setting [5]) lay in the range of 50 to 100%. In addition, the results for the mortality at 200 ppm in test [2], in test [3] and in test [4] were 0 to 80%, 0 to 80% and 80 to 100%, respectively.
